The values that follow are results of earlier work, collected in patent US12234221B2, “Pyridine carboxamide compounds for inhibiting NAV1.8” (Lieber Institute, Inc., priority 2018, dated 2025).

Structures are written as SMILES.

The target in series [1] is T1, Nav 1.8 (Mus musculus, UniProt Q6QIY3).
T1 construct: host or cells: mouse, in vivo
The following applies: mouse model of MS; cited from earlier work.

Series [2] concerns Nav 1.8. The following applies: PTHS models (ex vivo cell model, rodent models); cited from earlier work.

T1 sequence (Q6QIY3 whole entry): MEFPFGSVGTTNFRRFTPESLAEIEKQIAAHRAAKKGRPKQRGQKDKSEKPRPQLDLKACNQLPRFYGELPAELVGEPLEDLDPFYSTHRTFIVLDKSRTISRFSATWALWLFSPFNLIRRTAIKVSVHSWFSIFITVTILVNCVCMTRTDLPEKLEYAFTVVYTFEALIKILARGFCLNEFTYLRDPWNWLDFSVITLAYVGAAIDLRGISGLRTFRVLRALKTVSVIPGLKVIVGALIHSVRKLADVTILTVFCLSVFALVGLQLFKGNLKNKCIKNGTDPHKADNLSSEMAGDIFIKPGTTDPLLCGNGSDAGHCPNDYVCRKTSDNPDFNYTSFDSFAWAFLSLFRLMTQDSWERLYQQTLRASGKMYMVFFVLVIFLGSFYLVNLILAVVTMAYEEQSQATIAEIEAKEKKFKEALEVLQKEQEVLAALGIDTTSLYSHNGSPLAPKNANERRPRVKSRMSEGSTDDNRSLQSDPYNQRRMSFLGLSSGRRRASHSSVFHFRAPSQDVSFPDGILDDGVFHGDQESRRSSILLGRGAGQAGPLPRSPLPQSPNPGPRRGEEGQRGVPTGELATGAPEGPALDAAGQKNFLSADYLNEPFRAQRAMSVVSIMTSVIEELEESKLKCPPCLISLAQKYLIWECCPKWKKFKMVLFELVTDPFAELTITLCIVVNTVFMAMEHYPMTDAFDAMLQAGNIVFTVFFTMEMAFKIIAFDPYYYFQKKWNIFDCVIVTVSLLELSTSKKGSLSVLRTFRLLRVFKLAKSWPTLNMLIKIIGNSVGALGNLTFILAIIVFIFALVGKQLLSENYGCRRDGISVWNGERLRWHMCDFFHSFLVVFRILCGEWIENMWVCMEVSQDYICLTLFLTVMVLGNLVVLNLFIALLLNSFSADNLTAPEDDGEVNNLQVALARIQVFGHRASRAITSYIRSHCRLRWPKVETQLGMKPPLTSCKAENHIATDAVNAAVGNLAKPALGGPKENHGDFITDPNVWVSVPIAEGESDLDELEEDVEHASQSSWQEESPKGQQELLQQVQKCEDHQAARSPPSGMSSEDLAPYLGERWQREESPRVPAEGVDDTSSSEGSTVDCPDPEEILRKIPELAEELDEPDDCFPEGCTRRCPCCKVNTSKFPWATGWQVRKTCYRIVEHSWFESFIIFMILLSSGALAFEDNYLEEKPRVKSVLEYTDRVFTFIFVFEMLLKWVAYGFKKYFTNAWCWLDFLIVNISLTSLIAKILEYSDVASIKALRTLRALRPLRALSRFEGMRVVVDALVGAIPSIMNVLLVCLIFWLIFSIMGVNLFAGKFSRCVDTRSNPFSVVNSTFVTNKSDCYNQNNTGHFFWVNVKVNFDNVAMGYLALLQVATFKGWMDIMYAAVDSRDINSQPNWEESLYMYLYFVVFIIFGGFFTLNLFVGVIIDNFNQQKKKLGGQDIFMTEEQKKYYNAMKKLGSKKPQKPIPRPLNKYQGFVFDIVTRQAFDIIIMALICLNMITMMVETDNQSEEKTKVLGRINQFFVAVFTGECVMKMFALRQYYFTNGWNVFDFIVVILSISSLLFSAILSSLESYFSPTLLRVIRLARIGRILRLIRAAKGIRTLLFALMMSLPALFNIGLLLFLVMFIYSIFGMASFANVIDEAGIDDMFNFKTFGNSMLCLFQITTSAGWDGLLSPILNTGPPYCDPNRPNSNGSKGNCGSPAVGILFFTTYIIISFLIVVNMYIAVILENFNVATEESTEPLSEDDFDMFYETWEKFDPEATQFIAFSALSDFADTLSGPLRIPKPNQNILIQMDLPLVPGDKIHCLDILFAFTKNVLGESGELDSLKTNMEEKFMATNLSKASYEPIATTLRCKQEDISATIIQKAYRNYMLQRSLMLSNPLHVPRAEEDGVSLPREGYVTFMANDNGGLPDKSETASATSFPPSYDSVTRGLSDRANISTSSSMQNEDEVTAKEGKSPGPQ

Regarding `CNC(=O)c1ccc(-c2cc(Cl)cc(Cl)c2Cl)c(N)n1` [PF 01247324, N-methyl-6-amino-5-(2,3,5-trichlorophenyl)pyridine-2-carboxamide], the “effect on cerebellar deficits” value on Nav 1.8 [1] was “reverses cerebellar deficits”. `COc1ccc(Cl)c(-c2ccc(NC(=O)c3ccnn3C)nc2N)c1` [PF 4531083, N-[6-amino-5-(2-chloro-5-methoxyphenyl)pyridin-2-yl]-1-methyl-1H-pyrazole-5-carboxamide]: the “effect on excitability phenotypes” value in the series with Nav 1.8 [2] is on record as “can rapidly reverse some of the excitability phenotypes”.
